Measured values reported in US8198279B2, “Pyrido[2,3-b]pyrazin-8-substituted compounds and their use” (Institute of Cancer Research: Royal Cancer Hospital (The), priority 2007, dated 2012).

Assays:
[1] = biological target: T1, B-RAF (Homo sapiens, UniProt P15056, V600E); assay: DELFIA Kinase Assay; format: biochemical; settings: 100 μM ATP, GST-MEK substrate
T1 construct: made in house
Procedure, shortened: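 Recombinant B-RAF (V600E) with GST-MEK substrate was preincubated with compound for 10 min at room temperature, then reacted with 100 μM ATP for 45 min on milk-preblocked wells, with antibody detection by DELFIA europium fluorescence. Response is taken as % of DMSO control after empty-vector blank subtraction; IC50 is from a variable-slope sigmoidal fit, mean of usually three independent runs.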

[2] = tested on: pERK; assay: Cell Based Phospho-ERK Assay; settings: 6 h, 6 hours incubation with test compound
Procedure: Biological Methods—Cell Based Phosho-ERK Assay
Compounds were assessed using a cell-based assay which was performed according to the following protocol.
Plate out 16,000 cells/well in 99 μL medium in a 96-well plate.
• 1. Add 1 μL inhibitor to the cells (total […] solution). • 2. Incubate the cells with test compound for 6 hours at 37° C. • 3. Aspirate off the solution from all of the wells. • 4. Fixate the cells with 100 μL 4% formaldehyde/0.25% Triton X-100 PBS per well. • 5. Incubate the plate for 1 hour at 4° C. • 6. Aspirate off the fixing solution and add 300 μL TBS per well. • 7. Leave the plate overnight at 4° C. Day 2: • 1. Wash the plate 2× with 200 μL PBS per well. • 2. Block with 100 μL 5% dried milk in TBS. • 3. Incubate the plate for 20 minutes at 37° C. • 4. Wash the plate 2× with 0.1% tween/H2O. • 5. Add 50 μL of 3 μg/mL primary antibody pERK (Sigma M8159), diluted in 5% milk powder/TBS, to each well. • 6. Incubate the plate for 2 hours at 37° C. • 7. Wash the plate 3× with 0.1% tween/H2O. • 8. Add 50 μL of 0.45 μg/mL secondary Europium-labelled anti-mouse antibody (Perkin Elmer) to each well. • 9. Incubate the plate for 1 hour at 37° C. • 10. Wash the plate 3× with 0.1% tween/H2O. • 11. Add 100 μL enhancement solution (Perkin Elmer) to each well. • 12. Leave the plate for approximately 10 minutes at room temperature before gently shaking the plate. • 13. Read Europium Time Resolved Fluorescence in Victor2. • 14. Wash the plate 2× with 0.1% tween/H2O. • 15. Measure the protein concentration with BCA (Sigma) by adding 200 μL of solution per well. • 16. Incubate the plate for 30 minutes at 37° C. • 17. Read absorbance levels at 570 nm in a plate reader.
Note that Europium counts are normalised for protein levels by dividing counts by absorbance.
Values for the blank (no cells) are subtracted from all values. The DMSO controls are set as 100% activity and assay points (the response) are calculated as a percentage of the DMSO control. Data are plotted using Graphpad Prism software and a non-linear regression line is calculated using a variable slope sigmoidal dose-response equation (Y=Bottom+(Top−Bottom)/(1+10^((LogEC50−X)*HillSlope)) where X is the logarithm of concentration. Y is the response). The IC50 generated by this procedure is the concentration of the drug that produces a percentage control fluorescence value midway between the saturation, and zero-effect plateaus. Three independent assays are usually performed and the mean IC50 is reported.

[3] = tested on: WM266.4 melanoma cells; assay: SRB Cell Proliferation Assay (SRB GI50); format: cell-based; settings: Homo sapiens, WM 266-4, 144 h, 6 days growth
Procedure, shortened: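 WM266.4 cells (1000/well) grown 6 days with compound at 100 μM to 0.005 μM (3-fold dilutions) in DMEM/10% FBS at 37 °C. Cells TCA-fixed, sulphorhodamine-B stained, A540 read. GI50 is the concentration giving A540, as % of untreated control, midway between the plateaus.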

T1 sequence (P15056 whole entry V600E): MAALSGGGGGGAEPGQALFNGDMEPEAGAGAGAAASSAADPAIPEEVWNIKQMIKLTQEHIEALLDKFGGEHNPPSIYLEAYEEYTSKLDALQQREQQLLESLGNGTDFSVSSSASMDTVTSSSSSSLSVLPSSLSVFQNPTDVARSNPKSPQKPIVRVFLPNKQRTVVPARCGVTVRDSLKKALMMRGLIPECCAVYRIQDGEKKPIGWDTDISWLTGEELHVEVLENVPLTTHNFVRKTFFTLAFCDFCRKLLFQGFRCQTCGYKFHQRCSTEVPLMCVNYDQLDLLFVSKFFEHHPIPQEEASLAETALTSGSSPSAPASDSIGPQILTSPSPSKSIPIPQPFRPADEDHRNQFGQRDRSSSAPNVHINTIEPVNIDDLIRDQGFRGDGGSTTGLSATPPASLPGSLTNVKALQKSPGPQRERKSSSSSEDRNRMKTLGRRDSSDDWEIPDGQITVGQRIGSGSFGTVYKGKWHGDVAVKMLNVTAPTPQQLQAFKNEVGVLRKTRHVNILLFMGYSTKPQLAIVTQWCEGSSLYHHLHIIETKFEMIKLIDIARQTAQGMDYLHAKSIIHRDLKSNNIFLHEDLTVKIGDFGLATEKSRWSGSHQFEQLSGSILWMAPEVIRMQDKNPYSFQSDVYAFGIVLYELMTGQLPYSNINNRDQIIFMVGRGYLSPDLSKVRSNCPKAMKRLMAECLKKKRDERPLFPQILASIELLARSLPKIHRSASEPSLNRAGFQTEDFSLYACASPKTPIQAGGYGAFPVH

Row | Structure (SMILES) | IC50 [1] [nM] | IC50 [2] [nM] | GI50 [3] [nM]
1 | Cc1ccc(-n2nc(C(C)(C)C)cc2NC(=O)Nc2ccc(Oc3ccnc4[nH]c(=O)cnc34)cc2F)cn1 [AA-084, 1-(3-tert-butyl-1-(6-methylpyridin-3-yl)-1H-pyrazol-5-yl)-3-(2-fluoro-4-(3-oxo-3,4-dihydropyrido[3,2-b]pyrazin-8-yloxy)phenyl)urea] | 100 to 1000 | < 1000 | < 1000
2 | O=C(Nc1ccc(Oc2ccnc3[nH]c(=O)cnc23)c(F)c1)Nc1cc(C(F)(F)F)ccc1F [AA-086, 1-(3-fluoro-4-(3-oxo-3,4-dihydropyrido[2,3-b]pyrazin-8-yloxy)phenyl)-3-(2-fluoro-5-(trifluoromethyl)phenyl)urea] | < 100 | 1000 to 10000 | 1000 to 10000
3 | Cc1ccc(-n2nc(C(C)(C)C)cc2NC(=O)Nc2ccc(Oc3ccnc4[nH]c(=O)cnc34)c(F)c2)cc1 [AA-088, 1-(3-tert-butyl-1-p-tolyl-1H-pyrazol-5-yl)-3-(3-fluoro-4-(3-oxo-3,4-dihydropyrido[2,3-b]pyrazin-8-yloxy)phenyl)urea] | < 100 | < 1000 | < 1000
4 | CC(C)(C)c1cc(NC(=O)Nc2ccc(Oc3ccnc4ncc(=O)[nH]c34)cc2F)n(-c2ccccc2)n1 [AA-089, 1-(3-tert-butyl-1-phenyl-1H-pyrazol-5-yl)-3-(2-fluoro-4-(2-oxo-1,2-dihydropyrido[3,2-b]pyrazin-8-yloxy)phenyl)urea] | 100 to 1000 | < 1000 | < 1000
5 | CC(C)(C)c1cc(NC(=O)Nc2ccc(Oc3ccnc4[nH]c(=O)cnc34)cc2F)n(-c2ccc(S(C)(=O)=O)cc2)n1 [AA-090, 1-(3-tert-butyl-1-(4-(methylsulfonyl)phenyl)-1H-pyrazol-5-yl)-3-(2-fluoro-4-(3-oxo-3,4-dihydropyrido[3,2-b]pyrazin-8-yloxy)phenyl)urea] | 100 to 1000 | < 1000 | < 1000
6 | CC(C)(C)c1cc(NC(=O)Nc2ccc(Oc3ccnc4[nH]c(=O)c(=O)[nH]c34)cc2F)n(-c2ccccc2)n1 [AA-091, 1-(3-Tert-butyl-1-phenyl-1H-pyrazol-5-yl)-3-(4-(2,3-dioxo-1,2,3,4-tetrahydropyrido[3,2-b]pyrazin-8-yloxy)-2-fluorophenyl)urea] | 100 to 1000 | < 1000 | < 1000
7 | CC(C)(C)c1cc(NC(=O)Nc2ccc(Oc3ccnc4[nH]c(=O)c(=O)[nH]c34)cc2F)n(-c2ccc(S(C)(=O)=O)cc2)n1 [AA-092, 1-(3-tert-butyl-1-(4-(methylsulfonyl)phenyl)-1H-pyrazol-5-yl)-3-(4-(2,3-dioxo-1,2,3,4-tetrahydropyrido[3,2-b]pyrazin-8-yloxy)-2-fluorophenyl)urea] | 100 to 1000 | 1000 to 10000 | 1000 to 10000
8 | O=C(Nc1ccc(Oc2ccnc3[nH]c(=O)cnc23)cc1F)Nc1cc(C(F)(F)F)ccc1Oc1cccnc1 [AA-093, 1-(2-fluoro-4-(3-oxo-3,4-dihydropyrido[3,2-b]pyrazin-8-yloxy)phenyl)-3-(2-(pyridin-3-yloxy)-5-(trifluoromethyl)phenyl)urea] | < 100 | < 1000 | 1000 to 10000
9 | O=C(Nc1ccc(Oc2ccnc3[nH]c(=O)cnc23)cc1F)Nc1cc(C(F)(F)F)ccc1-n1cccn1 [AA-094, 1-(2-(1H-pyrazol-1-yl)-5-(trifluoromethyl)phenyl)-3-(2-fluoro-4-(3-oxo-3,4-dihydropyrido[3,2-b]pyrazin-8-yloxy)phenyl)urea] | < 100 | < 1000 | 1000 to 10000

Continued, values first:

Row | IC50 [1] [nM] | IC50 [2] [nM] | GI50 [3] [nM] | Structure (SMILES)
10 | < 100 | < 1000 | 1000 to 10000 | C=CCn1nc(C(C)(C)C)cc1NC(=O)Nc1ccc(Oc2ccnc3[nH]c(=O)cnc23)cc1F [AA-095, 5-[(4-amino-2-fluorophenyl-oxy)carbonylamino-5-(1-N-allyl-3-t-butyl-imidazolyl)]-pyridin-[2, 3]-3-pyrazin-2-one]
11 | < 100 | < 1000 | 1000 to 10000 | C#CCn1nc(C(C)(C)C)cc1NC(=O)Nc1ccc(Oc2ccnc3[nH]c(=O)cnc23)cc1F [AA-096]
12 | < 100 | < 1000 | 1000 to 10000 | CC(C)(C)c1cc(NC(=O)Nc2ccc(Oc3ccnc4[nH]c(=O)cnc34)cc2F)n(CC2CC2)n1 [AA-097, 1-(3-Tert-butyl-1-(cyclopropylmethyl)-1H-pyrazol-5-yl)-3-(2-fluoro-4-(3-oxo-3,4-dihydropyrido[3,2-b]pyrazin-8-yloxy)phenyl)urea]
13 | < 100 | 1000 to 10000 | 1000 to 10000 | COCn1nc(C(C)(C)C)cc1NC(=O)Nc1ccc(Oc2ccnc3[nH]c(=O)cnc23)cc1F [AA-098, 1-(3-Tert-butyl-1-(methoxymethyl)-1H-pyrazol-5-yl)-3-(2-fluoro-4-(3-oxo-3,4-dihydropyrido[3,2-b]pyrazin-8-yloxy)phenyl)urea]
